This is an account of results in paper PMC6595003, “Insights into real-time chemical processes in a calcium sensor protein-directed dynamic library” (Nature Communications, 2019).

Values joined by “and” are separate entries in the source; they are usually repeats but may differ in a detail not shown here. Equal values may be shown once.

Experiment [1] relates to Drosophila model of Alzheimer's disease (motoneuron overexpression of human aβ42arc). The experiment can be described thus: Synapse number quantification at the neuromuscular junction of flies fed with compound. Format: in vivo. The settings on record: vs DMSO. As for the experimental part: Aβ42arc overexpressing flies and the corresponding control (LacZ expression) were fed with 3b or the solvent, DMSO, throughout all life cycle (Fig. 9 and see Methods section).
Fig. 9 In vivo effects of compound 3b. Flies with motoneuron overexpression of the human aβ42arc (arctic mutation) (D42Gal4 > aβ42arc) or mock expression (D42Gal4 > LacZ) were fed with 3b (100 μM) or same volume of vehicle DMSO. a Twenty-day old adult abdominal motoneurons were analyzed and synapse number (nc82-positive spots) of the same motoneuron in different flies (16–19) were determined using Imaris, over the confocal 1 µm stacks. […] Data are analyzed statistically with unpaired two-tailored Student’s t test; ***P < 0.001. b Locomotor activity of individual 15 days old flies was recorded for 4 days in Drosophila Activity Monitors (DAM2, Trikinetics)[36], the total number of beam breaks per hour during two consecutive days was analyzed (the activity of the first two days is considered the habituation period and is discarded). Mean ± SEM of three independent experiments with 5–12 flies per condition each, were plotted and analyzed statistically with paired two-tailed Student’s t-test, *P < 0.05. […]
The Drosophila neuromuscular junction (NMJ) allows the accurate quantitative determination of the in vivo effects of drug application on a single glutamatergic synapse. […]

Experiment [2] can be described thus: Fly locomotor activity assay (DAM2 beam breaks). The class given is in vivo, Drosophila. As for the experimental part: (§1) Fig. 9 In vivo effects of compound 3b. Flies with motoneuron overexpression of the human aβ42arc (arctic mutation) (D42Gal4 > aβ42arc) or mock expression (D42Gal4 > LacZ) were fed with 3b (100 μM) or same volume of vehicle DMSO. a Twenty-day old adult abdominal motoneurons were analyzed and synapse number (nc82-positive spots) of the same motoneuron in different flies (16–19) were determined using Imaris, over the confocal 1 µm stacks. Data are plotted in graphs, where each grey triangle (aβ42arc flies fed with vehicle) and green triangle (aβ42arc flies fed with 3b) or each grey circle (control flies fed with vehicle) and green circle (control flies fed with 3b) represents one value. Horizontal line represents mean ± SEM. Data are analyzed statistically with unpaired two-tailored Student’s t test; ***P < 0.001. b Locomotor activity of individual 15 days old flies was recorded for 4 days in Drosophila Activity Monitors (DAM2, Trikinetics)[36], the total number of beam breaks per hour during two consecutive days was analyzed (the activity of the first two days is considered the habituation period and is discarded). Mean ± SEM of three independent experiments with 5–12 flies per condition each, were plotted and analyzed statistically with paired two-tailed Student’s t-test, *P < 0.05. Source data are provided as a Source Data file, ns non significant
(§2) To measure the physiological impact of this synaptic recovery, we evaluated fly locomotor activity. As described previously, overexpression of human aβ42arc peptide leads to severe locomotor dysfunction starting at day 15–20 post-eclosion[35].
(§3) Fifteen-day-old males were placed individually in locomotor activity monitor tubes (DAM2, TriKinetics Inc.) The DAM2 system automatically counts the number of beam breaks for flies walking in a horizontal tube over a specific period of time. This setup allowed for characterization of the locomotor and behavior rhythms of Drosophila. The tubes contained fly food with 100 µM compound 3b or same volume of DMSO. Flies were raised at 25 °C in 12-h light/12-h dark. In the first 2 days flies get habituated and the next 2 days the locomotor activity was quantified.

In experiment [3] the test system is Drosophila model of Alzheimer's disease (motoneuron overexpression of human aβ42arc). Description: Fly locomotor activity assay (DAM2 beam breaks). Format: in vivo. As for the experimental part: as §1, §2, §3
The target of experiment [4] is T1, dNCS-1 (Drosophila melanogaster, UniProt Q9VWX8).
T1 construct: made in house; host or cells: E. coli
T1 sequence (Q9VWX8 1-187): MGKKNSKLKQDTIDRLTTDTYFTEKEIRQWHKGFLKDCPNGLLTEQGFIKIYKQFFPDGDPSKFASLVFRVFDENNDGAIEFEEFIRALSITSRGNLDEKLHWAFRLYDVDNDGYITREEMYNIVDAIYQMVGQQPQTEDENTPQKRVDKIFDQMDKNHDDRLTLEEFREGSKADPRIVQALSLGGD
The experiment can be described thus: STD-NMR experiments with dNCS-1. Format: binding. The settings on record: compound 1 mM, 10 μM dNCS-1, 281 K. The protocol: Fig. 5 ^1H-STD-NMR spectra of 3a–3e in the presence of dNCS-1. STD (blue) and off-resonance (red) NMR spectra acquired for compounds 3a–3e (1 mM) in the presence of 10 μM dNCS-1 (600 MHz, 281 K). Relative STD intensities are coded according to the color scale shown. The 100% STD signal corresponds to the resonance showing the highest intensity in each case and all other STD signals are calculated accordingly
The experiments were performed using a deuterated Tris (pH 7.9) buffered solution with an aliquot of DMSO-d6. A sample containing 10 μM of dNCS-1 and 1 mM of DCL species (molar ratio 1:100) was prepared. The STD experiments were acquired at 281 K on a Bruker Avance 600 MHz spectrometer equipped with a cryoprobe. […]. The same conditions were used for the acquisition of the STD-NMR spectra of the individual products with dNCS-1.

Experiment [5] has as its target T1, dNCS-1. Description: tr-NOESY, DOSY and 1H-NMR of DCL mixtures in the presence of dNCS-1. The conditions noted are these: 281 K, up to 15 days. Format: binding. As for the experimental part:
Fig. 4 HPLC-MS and NMR studies of the full dynamic combinatorial library. a DCL chromatograms after 5 h in the absence and in the presence of dNCS-1. Conditions: aldehyde 1 (1.2 µL, 50 mM), 2a–2e (3.6 µL, 50 mM), catalyst (1 µL, 12 M), dNCS-1:1 [1:1], Tris buffer (20 mM, pH 7.4), 1 mM CaCl2, 0.5 M NaCl, 1 mM DTT, T = 4 °C, 2% DMSO. DCC experiments were carried out in triplicate. b 1D-^1H NMR spectrum (red) of the mixture and DOSY experiment (black) of the DCL in the presence of dNCS-1 (281 K, 600 MHz). c Tr-NOESY spectrum of the DCL mixture in the presence of dNCS-1 (mixing time 200 ms, 281 K, 600 MHz). Amplification of the region δ 7.2–8.0 ppm. […]. The new signals that reveal the formation of 3b (aromatic region) and 2c (aliphatic region) are marked with stars. ^1H-STD-NMR (blue) and off-resonance (red) NMR spectra of the mixture 2b + 3c + dNCS-1 (281 K, 600 MHz) after 15 days
DOSY-NMR and tr-NOESY-NMR experiments were also recorded to follow the exchange process.
The experiments were performed on the same samples and spectrometer, at 281 K. The tr-NOESY mixing time was fixed at 200 ms. The DOSY experiments were acquired with 16 gradient increments to a final intensity decay of 90%.

The mark [6] stands for this setting: 100 μM in food, one value per fly.

Consider `O=C(Cc1c[nH]c2ccccc12)NN=Cc1ccc([N+](=O)[O-])c(O)c1` (mixture of isomers) [3b], for which the “synapse number in aβ42arc flies” value in experiment [1] (fed 100 μM throughout life cycle, 20-day old adults) is reported as “pathological phenotype was largely suppressed”. Besides, the “synapse number in control (LacZ) flies” value in experiment [1] (fed 100 μM) is listed as “no effect”. Besides, in experiment [2] (setting [6]), the “beam breaks per hour of individual flies, control + 3b, Experiment 1” value was 102 and 219 and 449 and 504 and 422 and 192 and 564; the “beam breaks per hour of individual flies, control + 3b, Experiment 2” value was 281 and 38 and 295 and 200 and 178 and 147; the “beam breaks per hour of individual flies, control + 3b, Experiment 3” value was 81 and 263 and 78 and 204 and 169. Moreover, the “locomotor activity of control flies” value in experiment [2] (fed 100 μM, vs DMSO) is “does not reveal a significant difference”. In addition, in experiment [3] (setting [6]), the “beam breaks per hour of individual flies, aβ42arc + 3b, Experiment 1” value is 327 and 264 and 198 and 235 and 195 and 320 and 256 and 104 and 272 and 274 and 106 and 220; the “beam breaks per hour of individual flies, aβ42arc + 3b, Experiment 2” value was 295 and 321 and 87 and 159 and 125 and 199 and 157 and 279 and 287 and 274; the “beam breaks per hour of individual flies, aβ42arc + 3b, Experiment 3” value was 140 and 89 and 136 and 171 and 263 and 178 and 216 and 151 and 91 and 146 and 160. Besides, the “locomotor activity of aβ42arc flies” value in experiment [3] (fed 100 μM, 15 days old flies, vs DMSO) is given as “locomotor deficit was recovered”. In addition, the “recognition by dNCS-1 in STD-NMR” value in experiment [4] is reported as “largest STD intensities”. The “binding to dNCS-1 (1H-NMR evolution of the mixture 3c + 2b with dNCS-1)” value in experiment [5] was “a dNCS-1 ligand”.
